According to patent US7862815B2, “Methods for inhibiting angiogenesis with inhibitors of proadrenomedullin N-terminal 20 peptide (PAMP)” (The United States of America as represented by the …, priority 2002, dated 2011):

Assays:
Assay type in all cases: cell-based
[1] = tested on: Human dermal microvascular endothelial cells; experiment: Calcium measurements (ATP-induced calcium flux); conditions: 10 nM PAMP, 1 mM ATP
Description: Human dermal microvascular endothelial cells were obtained from Cell Applications, Inc. and cultured in 96-well plates at 1.0×10^5 cells per well. The cells were loaded for 60 minutes at room temperature with the fluorescent dye FLIPR (Molecular Devices) and then transferred to the FlexStation II (Molecular Devices) for analysis. The test compounds were prepared in another plate at a concentration of 5× and were added to the proper wells by the robotic arm of the FlexStation II. Fluorescence was measured every five seconds in each well and recorded. One mM ATP (Sigma) was used as a calcium agonist (Lau et al., Life Sci. 73, 20 19-2028, 2003).

human endothelial cells [2] = experiment: Migration assay (ChemoTx chamber); conditions: for increase in migration: 10^−11 M, four hour incubation, p<0.001; for concentration of peak of migration stimulation: lower and higher concentrations less efficient
Description: Cell motility was measured as described (Martinez et al., J. Natl. Cancer Inst., 21; 94(16):1226-37, 2002). Test peptides were placed at various concentrations at the bottom of a ChemoTx chamber (NeuroProbe Inc.). The intermediate membrane was coated with 10 μg/ml fibronectin, and in the upper chamber 5.0×10^5 human endothelial cells were added. After a four hour incubation at 37° C., the membrane was fixed and stained (Protocol Hema3, Biochemical Sciences Inc.). The cells trapped in the porous membrane were photographed through a 25× microscope objective and the number of cells per photographic field was counted.

human endothelial cells [3] = experiment: Cord formation assay on matrigel; conditions: overnight incubation on matrigel, FIG. 6C
Description: Human endothelial cells were seeded at 2.0×10^5 cells per well over a solid layer of matrigel covering the bottom of a 24-well plate in the presence or absence of the test peptides as described (Nam et al., Phytother. Res. 17, 107-111). After an overnight incubation, the tubular structures were photographed (three pictures per well) and the number of knots per photographic field were counted as a measure of lattice complexity.

human endothelial cells [4] = experiment: Real-time PCR quantification of gene expression; conditions: for expression of the AM/PAMP gene: addition of 10 nM peptide
Description: Human endothelial cells were cultured in T-75 flasks at a density of 2.5×10^6 cells/well. After the cells were attached to the bottom of the plate, they were treated with 10 nM PAMP in serum-free medium for 24 hours. At the end of this exposure, the cells were washed once with PBS, scraped from the plate and their total RNA was extracted using the RNeasy Mini Kit from Qiagen and reverse transcribed using the SuperScript First-Strand Synthesis system (Invitrogen). Quantification of gene expression was performed by real-time PCR as described (Martinez et al., J. Endocrinol. 176, 95-102, 2003). The PCR reaction was run in an Opticon cycler (MJ Research) using Sybr Green PCR master mix (Applied Biosystems). Thermocycling was performed in a final volume of 25 μl containing 2 μl of cDNA (1:10 dilution) and 400 nM of primers (see below). All targets were amplified in triplicates in the same run as the house-keeping gene, using the following cycle scheme: after initial denaturation of the samples at 95° C. for 2 minutes, 46 cycles of 95° C. for 30 seconds, 60° C. for 30 seconds, and 72° C. for 30 seconds were performed.
Fluorescence was measured in every cycle and mRNA levels were normalized by the 18S RNA values in all samples. A melting curve was run after PCR by increasing temperature from 50° C. to 96° C. (0.5° C. increments). A single peak was obtained for all amplicons, thus confirming the specificity of the reaction.

Substance	effect on ATP-induced calcium response [1]	increase in migration (human endothelial cells [2])	concentration of peak of migration stimulation (human endothelial cells [2])	efficiency in inducing cord formation (knots per field) (human endothelial cells [3])	expression of PDGF A mRNA (human endothelial cells [4]; 10 nM PAMP, 24 hours)	expression of PDGF B mRNA (human endothelial cells [4]; 10 nM PAMP, 24 hours)	expression of PDGF C mRNA (human endothelial cells [4]; 10 nM PAMP, 24 hours)	expression of VEGF mRNA (human endothelial cells [4]; 10 nM PAMP, 24 hours)	expression of bFGF mRNA (human endothelial cells [4]; 10 nM PAMP, 24 hours)	expression of AM gene mRNA (human endothelial cells [4]; 10 nM PAMP, 24 hours, normalized by 18S RNA)	cell migration at other concentrations (human endothelial cells [2]; concentrations lower than 10^−11 M)	expression of the AM/PAMP gene (human endothelial cells [4])	effect on cell migration (human endothelial cells [2]; on the concentration range tested)
proadrenomedullin N-terminal 20 peptide (ARLDVASEFRKKWNKWALSR; listed as Homo sapiens) [PAMP, 20 amino-acid molecule originating from the post-translational processing of pre-proadrenomedullin; synthetic human, purchased from Bachem]	greatly reduced	four-fold	10^−11 M	modest effect	no significant modification	no significant modification	elevating the expression	elevating the expression	elevating the expression	about 50 % over basal levels	–	–	–
vascular endothelial growth factor [VEGF]	–	four-fold	10^−11 M	most efficient	–	–	–	–	–	–	also induced a significant increase in cell migration	indistinguishable from the untreated controls	–
Adrenomedullin [AM]	–	–	–	–	–	–	–	–	–	–	–	indistinguishable from the untreated controls	did not modify cell migration significantly
